In US9447100B2, “Substituted pyrazolo[1,5-A] pyrimidines as calcium receptor modulating agents” (Takeda Pharmaceutical Company Limited, priority 2002, dated 2016) one finds melting point data, which are given here for 30 molecules.

Structures can show the parent of a compound that is named as a salt.

Usually melting point stands for the temperature, or range, at which the solid turns liquid. For `CCC(NC(=O)c1cnn2c1NC(c1ccccc1)CC2C(F)(F)F)c1ccccc1C` (stereo not drawn) [Example 399, N-(1-(2-methylphenyl)propyl)-5-phenyl-7-(trifluoromethyl)-4,5,6,7-tetrahydropyrazolo[1,5-a]pyrimidine-3-carboxamide], the melting point fell in the range of 225 to 226 °C.

In turn, `CCC(CC)(NC(=O)c1c(SC)nn2c1NC(c1ccccc1)CC2(C)C)c1ccc(Cl)cc1` (stereo not drawn) (as salt: HCl) [Example 780, N-(1-(4-chlorophenyl)-1-ethylpropyl)-7,7-dimethyl-2-(methylthio)-5-phenyl-4,5,6,7-tetrahydropyrazolo[1,5-a]pyrimidine-3-carboxamide] showed a melting point of 115 to 117 °C.

For the molecule `CCC(CC)(NC(=O)c1cnn2c1NC(c1ccccc1)CC2(C)C)C(C)C` (stereo not drawn) [Example 620, N-(1,1-diethyl-2-methylpropyl)-7,7-dimethyl-5-phenyl-4,5,6,7-tetrahydropyrazolo[1,5-a]pyrimidine-3-carboxamide], the melting point lay within 155 to 156 °C.

In turn, `CCC(CC)(NC(=O)c1c(C)nn2c1NC(c1ccccc1)CC2(C)C)c1ccc(F)cc1` (stereo not drawn) [Example 761, N-(1-ethyl-1-(4-fluorophenyl)propyl)-2,7,7-trimethyl-5-phenyl-4,5,6,7-tetrahydropyrazolo[1,5-a]pyrimidine-3-carboxamide] displayed a melting point of 182 to 183 °C.

`O=C(c1cnn2c1NC(c1ccccc1)CC2C(F)(F)F)N1CCN(C(c2ccccc2)c2ccccc2)CC1` (stereo not drawn) [Example 274, 3-((4-benzhydryl-1-piperazinyl)carbonyl)-5-phenyl-7-(trifluoromethyl)-4,5,6,7-tetrahydropyrazolo[1,5-a]pyrimidine] gave a melting point of 181 to 182 °C.

With `CCC(CC)(NC(=O)c1cnn2c1NC(c1ccccc1)CC2(C)C)c1ccc(N(C)C)cc1` (stereo not drawn) [Example 778, N-(1-(4-(dimethylamino)phenyl)-1-ethylpropyl)-7,7-dimethyl-5-phenyl-4,5,6,7-tetrahydropyrazolo[1,5-a]pyrimidine-3-carboxamide], the melting point lay in the range of 128 to 129 °C.

For `CCOC(=O)c1cnn2c1NC(c1ccc(OC)cc1)CC2C(F)(F)F` (stereo not drawn) [Example 3, ethyl 5-(4-methoxyphenyl)-7-(trifluoromethyl)-4,5,6,7-tetrahydropyrazolo[1,5-a]pyrimidine-3-carboxylate], the melting point lay in the range of 105 to 109 °C.

`COc1ccc(C2CC(C(F)(F)F)n3ncc(C(=O)O)c3N2)cc1` (stereo not drawn) [Example 25, 5-(4-methoxyphenyl)-7-(trifluoromethyl)-4,5,6,7-tetrahydropyrazolo[1,5-a]pyrimidine-3-carboxylic acid]: the melting point lay within 154 to 155 °C.

The molecule `CCc1ccc(C(CC)(CC)NC(=O)c2c(C)nn3c2N[C@@H](c2ccccc2F)CC3(C)C)cc1` (as salt: HCl) [Example 1089, (5R)-N-(1-ethyl-1-(4-ethylphenyl)propyl)-5-(2-fluorophenyl)-2,7,7-trimethyl-4,5,6,7-tetrahydropyrazolo[1,5-a]pyrimidine-3-carboxamide] had a melting point of 138 to 139 °C.

The molecule `Cc1ccc(C2CC(C)(C)n3ncc(C(=O)O)c3N2)c(C)c1` (stereo not drawn) [Example 952, 5-(2,4-dimethylphenyl)-7,7-dimethyl-4,5,6,7-tetrahydropyrazolo[1,5-a]pyrimidine-3-carboxylic acid] registered a melting point of 155 to 157 °C.

For the molecule `O=C(NC1(C(=O)N2CCOCC2)CCCCC1)c1cnn2c1N[C@H](c1ccccc1)C[C@@H]2C(F)(F)F` [Example 370], the melting point was 290 to 291 °C.

As to `CCCC(CC)(CC)NC(=O)c1c(C)nn2c1NC(c1ccccc1F)CC2(C)C` (stereo not drawn) (as salt: HCl) [Example 957, N-(1,1-diethylbutyl)-5-(2-fluorophenyl)-2,7,7-trimethyl-4,5,6,7-tetrahydropyrazolo[1,5-a]pyrimidine-3-carboxamide], the melting point is 181 to 182 °C.

Take `CC(C)C(NC(=O)c1cnn2c1NC(c1ccccc1)CC2(C)C)C(C)C` (stereo not drawn) [Example 621, N-(1-isopropyl-2-methylpropyl)-7,7-dimethyl-5-phenyl-4,5,6,7-tetrahydropyrazolo[1,5-a]pyrimidine-3-carboxamide]: the melting point was in the range of 168 to 169 °C.

`CCC(NC(=O)c1cnn2c1NC(c1ccccc1)CC2C(F)(F)F)c1ccccc1Br` (stereo not drawn) [Example 401, N-(1-(2-bromophenyl)propyl)-5-phenyl-7-(trifluoromethyl)-4,5,6,7-tetrahydropyrazolo[1,5-a]pyrimidine-3-carboxamide] displayed a melting point of 236 to 237 °C.

Regarding `CC(NC(=O)c1cnn2c1N[C@H](c1ccccc1)C[C@@H]2C(F)(F)F)C(=O)c1ccccc1` (stereo in doubt) [Example 290, N-(1-methyl-2-oxo-2-phenylethyl)-5-phenyl-7-(trifluoromethyl)-4,5,6,7-tetrahydropyrazolo[1,5-a]pyrimidine-3-carboxamide], the melting point lay within 271 to 272 °C.

`CCC(CC)(NC(=O)c1cnn2c1NC(c1cccc(OC)c1)CC2(C)C)c1ccc(C)cc1` (stereo not drawn) (as salt: HCl) [Example 820, N-(1-ethyl-1-(4-methylphenyl)propyl)-5-(3-methoxyphenyl)-7,7-dimethyl-4,5,6,7-tetrahydropyrazolo[1,5-a]pyrimidine-3-carboxamide] came in with a melting point of 168 to 169 °C.

`CCOc1ccc(C(CC)(CC)NC(=O)c2cnn3c2NC(c2ccccc2)CC3(C)C)cc1` (stereo not drawn) [Example 722, N-(1-(4-ethoxyphenyl)-1-ethylpropyl)-7,7-dimethyl-5-phenyl-4,5,6,7-tetrahydropyrazolo[1,5-a]pyrimidine-3-carboxamide] had a melting point of 141 to 142 °C.

Regarding `CCC(CC)(NC(=O)c1cnn2c1NC(c1ccccc1)CC2(C)C)c1cc(-c2ccc(F)cc2)n(C)n1` (stereo not drawn) [Example 726, N-(1-ethyl-1-(5-(4-fluorophenyl)-1-methyl-1H-pyrazol-3-yl)propyl)-7,7-dimethyl-5-phenyl-4,5,6,7-tetrahydropyrazolo[1,5-a]pyrimidine-3-carboxamide], the melting point was 218 to 219 °C.

The molecule `CCC1(CC)C[C@H](OCc2ccccc2)CN1C(=O)c1cnn2c1N[C@H](c1ccccc1)CC2(C)C` [Example 1109, (5S)-3-(((4S)-4-(benzyloxy)-2,2-diethy-1-pyrrolidinyl)carbonyl)-7,7-dimethyl-5-phenyl-4,5,6,7-tetrahydropyrazolo[1,5-a]pyrimidine] registered a melting point of 116 to 118 °C.

Take `O=C(NCc1ccc(-c2csnn2)cc1)c1cnn2c1NC(c1ccccc1)CC2C(F)(F)F` (stereo not drawn) [Example 278, 5-phenyl-N-(4-(1,2,3-thiadiazol-4-yl)benzyl)-7-(trifluoromethyl)-4,5,6,7-tetrahydropyrazolo[1,5-a]pyrimidine-3-carboxamide]: the melting point is 205 to 206 °C.

Regarding `CCC(CC)(c1ccccc1)c1nnc(-c2c(C)nn3c2N[C@@H](c2ccccc2)CC3(C)C)s1` [Example 1145, (5R)-3-(5-(1-ethyl-1-phenylpropyl)-1,3,4-thiadiazol-2-yl)-2,7,7-trimethyl-5-phenyl-4,5,6,7-tetrahydropyrazolo[1,5-a]pyrimidine], the melting point fell in the range of 174 to 175 °C.

The molecule `O=C(CNC(=O)c1cnn2c1N[C@H](c1ccccc1)C[C@@H]2C(F)(F)F)c1ccccc1Cl` (stereo in doubt) [Example 289, N-(2-(2-chlorophenyl)-2-oxoethyl)-5-phenyl-7-(trifluoromethyl)-4,5,6,7-tetrahydropyrazolo[1,5-a]pyrimidine-3-carboxamide] had a melting point of 154 to 155 °C.

As for `Cc1nn2c(c1C(=O)O)NC(c1ccccc1F)CC2(C)C` (single isomer, unassigned; (+)) [Example 1024, (+)-5-(2-fluorophenyl)-2,7,7-trimethyl-4,5,6,7-tetrahydropyrazolo[1,5-a]pyrimidine-3-carboxylic acid], the melting point lay within 150 to 151 °C.

With `CCC1(NC(=O)c2cnn3c2NC(c2ccccc2)CC3(C)C)CCOCC1` (stereo not drawn) [Example 582, N-(4-ethyltetrahydro-2H-pyran-4-yl)-7,7-dimethyl-5-phenyl-4,5,6,7-tetrahydropyrazolo[1,5-a]pyrimidine-3-carboxamide], the melting point was 104 to 105 °C.

Consider `CCC(CC)(NC(=O)c1cnn2c1N[C@@H](c1ccccc1)CC2(C)C)c1ccc(CO)cc1` (as salt: HCl) [Example 1077, (5R)-N-(1-ethyl-1-(4-(hydroxymethyl)phenyl)propyl)-7,7-dimethyl-5-phenyl-4,5,6,7-tetrahydropyrazolo[1,5-a]pyrimidine-3-carboxamide], for which the melting point lay within 159 to 160 °C.

`O=C(NC12CC3CC(CC(C3)C1)C2)c1cnn2c1NC(c1ccccc1Cl)CC2C(F)(F)F` (stereo not drawn) [Example 281, N-(1-adamantyl)-5-(2-chlorophenyl)-7-(trifluoromethyl)-4,5,6,7-tetrahydropyrazolo[1,5-a]pyrimidine-3-carboxamide] displayed a melting point of 256 to 257 °C.

Regarding `O=C(NC12CC3CC(CC(C3)C1)C2)c1cnn2c1NC(c1ccco1)CC2C(F)(F)F` (stereo not drawn) [Example 270, N-(1-adamantyl)-5-(2-furyl)-7-(trifluoromethyl)-4,5,6,7-tetrahydropyrazolo[1,5-a]pyrimidine-3-carboxamide], the melting point fell in the range of 230 to 231 °C.

`COc1cccc(C2CC(C)(C)n3nc(C)c(C(=O)O)c3N2)c1` (stereo not drawn) [Example 947, 5-(3-methoxyphenyl)-2,7,7-trimethyl-4,5,6,7-tetrahydropyrazolo[1,5-a]pyrimidine-3-carboxylic acid] returned a melting point of 151 to 152 °C.

On to `CC1(C)CC(c2ccccc2)Nc2c(C(=O)NC(c3ccc(C(F)(F)F)cc3)(C3CCCCC3)C3CCCCC3)cnn21` (stereo not drawn) [Example 412, N-(dicyclohexyl(4-(trifluoromethyl)phenyl)methyl)-7,7-dimethyl-5-phenyl-4,5,6,7-tetrahydropyrazolo[1,5-a]pyrimidine-3-carboxamide], for which the melting point is 146 to 147 °C.

The molecule `CCC(CC)(NC(=O)c1cnn2c1NC(c1ccccc1OC)CC2(C)C)c1ccc(C)cc1` (stereo not drawn) (as salt: HCl) [Example 964, N-[1-ethyl-1-(4-methylphenyl)propyl]-5-(2-methoxyphenyl)-7,7-dimethyl-4,5,6,7-tetrahydropyrazolo[1,5-a]pyrimidine-3-carboxamide] registered a melting point of 158 to 159 °C.
